Key:
[1] = tested on: ECHCG; assay: In-water applied (paddy) greenhouse weed control, ECHCG; format: in vivo, Echinochloa crusgalli (L.) Beauv.
Method: (§1) Weed seeds or nutlets of the desired test plant species were planted in puddled soil (mud) prepared by mixing a shredded, non-sterilized mineral soil (50.5 percent silt, 25.5 percent clay, and 24 percent sand, with a pH of about 7.6 and an organic matter content of about 2.9 percent) and water at a 1:1 volumetric ratio. The prepared mud was dispensed in 365 mL aliquots into 16-ounce (oz.) non-perforated plastic pots with a surface area of 86.59 square centimeters (cm^2) leaving a headspace of 3 centimeters (cm) in each pot. Mud was allowed to dry overnight prior to planting or transplanting. Rice seeds were planted in Sun Gro MetroMix® 306 planting mixture, which typically has a pH of 6.0 to 6.8 and an organic matter content of about 30 percent, in plastic plug trays. Seedlings at the second or third leaf stage of growth were transplanted into 840 mL of mud contained in 32-oz. non-perforated plastic pots with a surface area of 86.59 cm^2 4 days prior to herbicide application. The paddy was created by filling the headspace of the pots with 2.5 to 3 cm of water. When required to ensure good germination and healthy plants, a fungicide treatment and/or other chemical or physical treatment was applied. The plants were grown for 4-22 days in a greenhouse with an approximate 14 h photoperiod which was maintained at about 29′C during the day and 26° C. during the night. Nutrients were added as Osmocote® (19:6:12, N:P:K+minor nutrients) at 2 g per 16-oz. pot and 4 g per 960-mL 32-oz. pot. Water was added on a regular basis to maintain the paddy flood, and supplemental lighting was provided with overhead metal halide 1000-Watt lamps as necessary. The plants were employed for testing when they reached the second or third true leaf stage.
(§2) Treatments consisted of the acid or esters of 4-amino-3-chloro-5-fluoro-6-(4-chloro-2-fluoro-3-methoxy-phenyl)pyridine-2-carboxylic acid (compound A) each formulated as an SC and various herbicidal components alone and in combination. Forms of compound A were applied on an acid equivalent basis.
(§3) Other herbicidal components were applied on an active ingredient basis and included auxin transport inhibiting (ATI) herbicides chlorflurenol-methyl (technical material), chlorflurenol (technical material), diflufenzopyr (technical material), dilfufenzopyr sodium (technical material), flurenol-methyl (technical material,) and naptalam (technical material).
(§4) Treatment requirements for each compound or herbicidal component were calculated based upon the rates being tested, the concentration of active ingredient or acid equivalent in the formulation, an application volume of 2 mL per component per pot, and an application area of 86.59 cm^2 per pot.
(§5) For formulated compounds, a measured amount was placed in an individual 100 or 200 mL glass vial and was dissolved in a volume of 1.25% (v/v) Agri-Dex® crop oil concentrate to obtain application solutions.
(§6) For technical grade compounds, a weighed amount was placed in an individual 100 to 200 mL glass vial and was dissolved in a volume of acetone to obtain concentrated stock solutions. […] The concentrated stock solutions obtained were diluted with an equivalent volume of an aqueous mixture containing 2.5% (v/v) crop oil concentrate so that the final application solutions contained 1.25% (v/v) crop oil concentrate.
(§7) Applications were made by injecting with a pipetter appropriate amounts of the application solutions, individually and sequentially, into the aqueous layer of the paddy. Control plants were treated in the same manner with the solvent blank. Applications were made so that all treated plant material received the same concentrations of acetone and crop oil concentrate.
(§8) The treated plants and control plants were placed in a greenhouse as described above and water was added as needed to maintain a paddy flood. […]

[2] = tested on: ECHOR; assay: In-water applied (paddy) greenhouse weed control, ECHOR; format: in vivo, Echinochloa oryzoides (Ard.) Fritsch
Method: as §1, §2, §3, §4, §5, §6, §7, §8

[3] = tested on: SCPMA; assay: In-water applied (paddy) greenhouse weed control, SCPMA; format: in vivo
Method: as §1, §2, §3, §4, §5, §6, §7, §8

[4] = tested on: CYPIR; assay: Postemergence foliar-applied greenhouse weed control, CYPIR; format: in vivo, Cyperus iria L.; conditions: 20 DAA
Text: (§9) Seeds or nutlets of the desired test plant species were planted in a soil matrix prepared by mixing a loam or sandy loam soil (e.g., 28.6 percent silt, 18.8 percent clay, and 52.6 percent sand, with a pH of about 5.8 and an organic matter content of about 1.8 percent) and calcareous grit in an 80 to 20 ratio. The soil matrix was contained in plastic pots with a volume of 1 quart and a surface area of 83.6 square centimeters (cm^2). When required to ensure good germination and healthy plants, a fungicide treatment and/or other chemical or physical treatment was applied. The plants were grown for 8-22 days in a greenhouse with an approximate 14 h photoperiod which was maintained at about 29° C. during the day and 26° C. during the night. Nutrients (Peters Excel® 15-5-15 5-Ca 2-Mg and iron chelate) were applied in the irrigation solution as needed and water was added on a regular basis. Supplemental lighting was provided with overhead metal halide 1000-Watt lamps as necessary. The plants were employed for testing when they reached the first through fourth true leaf stage.
(§10) Treatments consisted of the acid or esters of 4-amino-3-chloro-5-fluoro-6-(4-chloro-2-fluoro-3-methoxy-phenyl) pyridine-2-carboxylic acid (Compound A), each formulated as an SC (suspension concentrate), and various herbicidal components alone and in combination. Forms of compound A were applied on an acid equivalent basis.
as §3, with “chlorflurenol” for “chlorflurenol-methyl”, “chlorflurenol-methyl” for “chlorflurenol”, “diflufenzopyr” for “dilfufenzopyr”, “material)” for “material,)”
(§11) Treatment requirements were calculated based upon the rates being tested, the concentration of active ingredient or acid equivalent in the formulation, and a 12 mL application volume at a rate of 187 L/ha.
(§12) For treatments comprised of formulated and technical compounds, weighed amounts of the technical materials were placed individually in 25 mL glass vials and dissolved in a volume of 97:3 v/v acetone/DMSO to obtain 12× stock solutions, and measured amounts of the formulated compounds were placed individually in 25 mL glass vials and diluted in a volume of 1.5% (v/v) crop oil concentrate or water to obtain 12× stock solutions. […] Application solutions were prepared by adding an appropriate amount of each stock solution (e.g., 1 mL) and diluted to the appropriate final concentrations with the addition of an appropriate amount of an aqueous mixture of 1.5% (v/v) crop oil concentrate so that the final spray solutions contained 1.25% (v/v) crop oil concentrate. When required, additional water and/or 97:3 v/v acetone/DMSO was added to individual application solutions so that the final acetone and DMSO concentrations of the application solutions being compared were 8.1% and 0.25%, respectively.
(§13) All stock solutions and applications solutions were visually inspected for compound compatibility prior to application. Spray solutions were applied to the plant material with an overhead Mandel track sprayer equipped with an 8002E nozzle calibrated to deliver 187 L/ha over an application area of 0.503 m^2 at a spray height of 18 to 20 inches (46 to 50 cm) above average plant canopy height. Control plants were sprayed in the same manner with the solvent blank.
(§14) The treated plants and control plants were placed in a greenhouse as described above and watered by sub-irrigation to prevent wash-off of the test compounds. After approximately 3 weeks, the condition of the test plants as compared with that of the untreated plants was determined visually and scored on a scale of 0 to 100 percent where 0 corresponds to no injury or growth inhibition and 100 corresponds to complete kill. […]

[5] = tested on: DIGSA; assay: Postemergence foliar-applied greenhouse weed control, DIGSA; format: in vivo, Digitaria sanguinalis (L.) Scop.; conditions: 20 DAA
Text: as §9, §10
as §3, with “chlorflurenol” for “chlorflurenol-methyl”, “chlorflurenol-methyl” for “chlorflurenol”, “diflufenzopyr” for “dilfufenzopyr”, “material)” for “material,)”
as §11, §12, §13, §14

[6] = tested on: ECHCG; assay: Postemergence foliar-applied greenhouse weed control, ECHCG; format: in vivo, Echinochloa crusgalli (L.) Beauv.; conditions: 20 DAA
Text: as §9, §10
as §3, with “chlorflurenol” for “chlorflurenol-methyl”, “chlorflurenol-methyl” for “chlorflurenol”, “diflufenzopyr” for “dilfufenzopyr”, “material)” for “material,)”
as §11, §12, §13, §14

[7] = tested on: ECHCO; assay: Postemergence foliar-applied greenhouse weed control, ECHCO; format: in vivo, Echinochloa colona (L.) Link; conditions: 20 DAA
Text: as §9, §10
as §3, with “chlorflurenol” for “chlorflurenol-methyl”, “chlorflurenol-methyl” for “chlorflurenol”, “diflufenzopyr” for “dilfufenzopyr”, “material)” for “material,)”
as §11, §12, §13, §14

[8] = tested on: IPOHE; assay: Postemergence foliar-applied greenhouse weed control, IPOHE; format: in vivo, Ipomoea hederacea Jacq.; conditions: 20 DAA
Text: as §9, §10
as §3, with “chlorflurenol” for “chlorflurenol-methyl”, “chlorflurenol-methyl” for “chlorflurenol”, “diflufenzopyr” for “dilfufenzopyr”, “material)” for “material,)”
as §11, §12, §13, §14

[9] = tested on: LEFCH; assay: Postemergence foliar-applied greenhouse weed control, LEFCH; format: in vivo, Leptochloa chinensis (L.) Nees; conditions: 20 DAA
Text: as §9, §10
as §3, with “chlorflurenol” for “chlorflurenol-methyl”, “chlorflurenol-methyl” for “chlorflurenol”, “diflufenzopyr” for “dilfufenzopyr”, “material)” for “material,)”
as §11, §12, §13, §14

[10] = tested on: LEFCH; assay: In-water applied (paddy) greenhouse weed control, LEFCH; format: in vivo, Leptochloa chinensis (L.) Nees; conditions: 20 DAA
Method: as §1, §2, §3, §4, §5, §6, §7, §8

[11] = tested on: CYPRO; assay: In-water applied (paddy) greenhouse weed control, CYPRO; format: in vivo, Cyperus rotundus L.; conditions: 19 DAA
Method: as §1, §2, §3, §4, §5, §6, §7, §8

[12] = tested on: FIMMI; assay: In-water applied (paddy) greenhouse weed control, FIMMI; format: in vivo, Fimbristylis miliacea (L.) Vahl; conditions: 19 DAA
Method: as §1, §2, §3, §4, §5, §6, §7, §8

SMILES: O=C(O)C1(O)c2ccccc2-c2ccc(Cl)cc21 (centres unmarked) [Chlorflurenol, reference compound]
- Visual Weed Control (%) Obs ([1]; 22 DAA, 275 gai/ha): 10%
- Visual Weed Control (%) Obs ([2]; 22 DAA, 550 gai/ha): 30%
- Visual Weed Control (%) Obs ([3]; 22 DAA, 275 gai/ha): 45%
- Visual Weed Control (%) Obs ([3]; 22 DAA, 550 gai/ha): 60%

SMILES: COC(=O)C1(O)c2ccccc2-c2ccc(Cl)cc21 (centres unmarked) [Chlorflurenol-Methyl, methyl 2-chloro-9-hydroxy-9H-fluorene-9-carboxylate, reference compound]
- Visual Weed Control (%) Obs ([4]; 68.75 gai/ha): 0%
- Visual Weed Control (%) Obs ([4]; 137.5 gai/ha): 0%
- Visual Weed Control (%) Obs ([4]; 275 gai/ha): 0%
- Visual Weed Control (%) Obs ([5]; 68.75 gai/ha): 0%
- Visual Weed Control (%) Obs ([5]; 137.5 gai/ha): 0%
- Visual Weed Control (%) Obs ([5]; 275 gai/ha): 0%
- Visual Weed Control (%) Obs ([6]; 68.75 gai/ha): 0%
- Visual Weed Control (%) Obs ([6]; 137.5 gai/ha): 0%
- Visual Weed Control (%) Obs ([6]; 275 gai/ha): 0%
- Visual Weed Control (%) Obs ([7]; 68.75 gai/ha): 0%
- Visual Weed Control (%) Obs ([7]; 137.5 gai/ha): 0%
- Visual Weed Control (%) Obs ([7]; 275 gai/ha): 0%
- Visual Weed Control (%) Obs ([8]; 137.5 gai/ha): 50%
- Visual Weed Control (%) Obs ([8]; 275 gai/ha): 55%
- Visual Weed Control (%) Obs ([9]; 68.75 gai/ha): 0%
- Visual Weed Control (%) Obs ([9]; 137.5 gai/ha): 10%
- Visual Weed Control (%) Obs ([9]; 275 gai/ha): 10%
- Visual Weed Control (%) Obs ([1]; 20 DAA, 275 gai/ha): 15%
- Visual Weed Control (%) Obs ([1]; 20 DAA, 550 gai/ha): 20%
- Visual Weed Control (%) Obs ([2]; 20 DAA, 275 gai/ha): 20%
- Visual Weed Control (%) Obs ([2]; 20 DAA, 550 gai/ha): 10%
- Visual Weed Control (%) Obs ([10]; 275 gai/ha): 0%
- Visual Weed Control (%) Obs ([10]; 550 gai/ha): 0%
- Visual Weed Control (%) Obs ([3]; 20 DAA, 275 gai/ha): 75%
- Visual Weed Control (%) Obs ([3]; 20 DAA, 550 gai/ha): 80%

SMILES: C/C(=N\NC(=O)Nc1cc(F)cc(F)c1)c1ncccc1C(=O)O [Diflufenzopyr sodium]
- Visual Weed Control (%) Obs ([11]; 17.5 gai/ha): 0%
- Visual Weed Control (%) Obs ([11]; 35 gai/ha): 0%
- Visual Weed Control (%) Obs ([11]; 70 gai/ha): 10%
- Visual Weed Control (%) Obs ([1]; 19 DAA, 17.5 gai/ha): 20%
- Visual Weed Control (%) Obs ([1]; 19 DAA, 35 gai/ha): 50%
- Visual Weed Control (%) Obs ([1]; 19 DAA, 70 gai/ha): 20%
- Visual Weed Control (%) Obs ([12]; 17.5 gai/ha): 50%
- Visual Weed Control (%) Obs ([12]; 35 gai/ha): 55%
- Visual Weed Control (%) Obs ([12]; 70 gai/ha): 60%

Source: US20140031217A1, “HERBICIDAL COMPOSITIONS COMPRISING 4-AMINO-3-CHLORO-5-FLUORO-6-(4-CHLORO-2-FLUORO-3-METHOXYPHENYL)PYRIDINE-2-CARBOXYLIC ACID OR A DERIVATIVE THEREOF AND AUXIN TRANSPORT INHIBITORS” (DOW AGROSCIENCES LLC, priority 2012, published 2014)
